Measured values as given in patent US20050090396A1, “Herbicides based on substituted carboxylic acid anilides” (priority 2001, published 2005).

Experiments:
[1] = test system: Hordeum vulgare (winter barley); assay: Post-emergence test/greenhouse, damage to winter barley (HORVW); type: in vivo
Method: (§1) Post-Emergence Test/Greenhouse
Test plants are grown under controlled conditions (temperature and light).
(§2) Following the spray application, the plant containers are kept in the greenhouse under constant light and temperature conditions.
(§3) After five days (5d) and/or three weeks (21d), the degree of damage to the plants is rated in % damage in comparison to the development of the untreated control.

[2] = test system: Triticum aestivum (winter wheat); assay: Post-emergence test/greenhouse, damage to winter wheat (TRZAW); type: in vivo
Method: as §1
Test plants are grown under controlled conditions (temperature and light). Once the plants have reached a height of 5 to 15 cm, the test compound or the combination of test compounds is applied by spraying such that the particular amounts of active compound desired are applied per unit area. The concentration of the spray liquor is chosen so that the particular amounts of active compound desired are applied in 500 litres of water/ha.
as §2, §3
• 0%=no effect (like untreated control) • 100%=total destruction.
Unless indicated otherwise, the tests were carried out in the presence of 0.5% Renex 36. • a.i. denotes “active ingredient” (active compound). • HORVW denotes Hordeum vulgare (winter barley).
TRZAW denotes Triticum aestivum (winter wheat).

[3] = 50 g of ai/ha, without addition of Renex 36

CCS(=O)(=O)N(C(=O)COc1ccc(Cl)cc1Cl)c1cc(-n2c(=O)cc(C(F)(F)F)n(C)c2=O)c(F)cc1C#N [Ex. I-1]
degree of damage to the plants, HORVW 21d ([1]; 30 g of ai/ha, 0.5% Renex 36): 20%
degree of damage to the plants, HORVW 21d ([1]; 60 g of ai/ha, 0.5% Renex 36): 40%

CCS(=O)(=O)N(C(=O)CCc1ccc(Cl)c(Cl)c1)c1cc(-n2c(=O)cc(C(F)(F)F)n(C)c2=O)c(F)cc1C#N [Ex. I-2]
degree of damage to the plants, HORVW 5d ([1]; 30 g of ai/ha, 0.5% Renex 36): 40%
degree of damage to the plants, HORVW 5d ([1]; 60 g of ai/ha, 0.5% Renex 36): 60%

CCS(=O)(=O)N(C(=O)CCc1ccc(Cl)c(Cl)c1)c1cc(-n2ncc(=O)n(C)c2=O)c(F)cc1C#N [Ex. I-14]
degree of damage to the plants, TRZAW 5d ([2]; 60 g of ai/ha, 0.5% Renex 36): 20%
degree of damage to the plants, HORVW 5d ([1]; 60 g of ai/ha, 0.5% Renex 36): 30%

CCS(=O)(=O)N(C(=O)CCc1cccc(OC)c1)c1cc(-n2c(=O)cc(C(F)(F)F)n(C)c2=O)c(F)cc1C#N [Ex. I-24]
degree of damage to the plants, HORVW 5d ([1]; 15 g of ai/ha, 0.5% Renex 36): 40%
degree of damage to the plants, HORVW 5d ([1]; 30 g of ai/ha, 0.5% Renex 36): 60%
degree of damage to the plants, HORVW 5d ([1]; 60 g of ai/ha, 0.5% Renex 36): 70%

Cn1c(C(F)(F)F)cc(=O)n(-c2cc(N(C(=O)CCc3ccc(F)c(F)c3)S(C)(=O)=O)c(C#N)cc2F)c1=O [Ex. I-26]
degree of damage to the plants, TRZAW 21d ([2]; 30 g of ai/ha, 0.5% Renex 36): 20%
degree of damage to the plants, TRZAW 21d ([2]; 60 g of ai/ha, 0.5% Renex 36): 30%
degree of damage to the plants, HORVW 21d ([1]; 15 g of ai/ha, 0.5% Renex 36): 10%
degree of damage to the plants, HORVW 21d ([1]; 30 g of ai/ha, 0.5% Renex 36): 20%
degree of damage to the plants, HORVW 21d ([1]; 60 g of ai/ha, 0.5% Renex 36): 40%

CCS(=O)(=O)N(C(=O)C(C)=Cc1ccccc1)c1cc(-n2c(=O)cc(C(F)(F)F)n(C)c2=O)c(F)cc1C#N [Ex. I-29]
degree of damage to the plants, HORVW 5d ([1]; 15 g of ai/ha, 0.5% Renex 36): 10%

CCS(=O)(=O)N(C(=O)C=Cc1ccccc1Cl)c1cc(-n2c(=O)cc(C(F)(F)F)n(C)c2=O)c(F)cc1C#N [Ex. I-31]
degree of damage to the plants, TRZAW 5d ([2]; 30 g of ai/ha, 0.5% Renex 36): 20%
degree of damage to the plants, TRZAW 5d ([2]; 60 g of ai/ha, 0.5% Renex 36): 20%
degree of damage to the plants, HORVW 5d ([1]; 15 g of ai/ha, 0.5% Renex 36): 30%
degree of damage to the plants, HORVW 5d ([1]; 30 g of ai/ha, 0.5% Renex 36): 40%
degree of damage to the plants, HORVW 5d ([1]; 60 g of ai/ha, 0.5% Renex 36): 50%

Cn1c(C(F)(F)F)cc(=O)n(-c2cc(N(C(=O)C=Cc3ccccc3Cl)S(C)(=O)=O)c(C#N)cc2F)c1=O [Ex. I-32]
degree of damage to the plants, HORVW 5d ([1]; 30 g of ai/ha, 0.5% Renex 36): 25%
degree of damage to the plants, HORVW 5d ([1]; 60 g of ai/ha, 0.5% Renex 36): 40%

CCS(=O)(=O)N(C(=O)CCc1cccc(Cl)c1)c1cc(-n2c(=O)cc(C(F)(F)F)n(C)c2=O)c(F)cc1C#N [Ex. I-33]
degree of damage to the plants, TRZAW 5d ([2]; 60 g of ai/ha, 0.5% Renex 36): 25%
degree of damage to the plants, TRZAW 21d ([2]; 30 g of ai/ha, 0.5% Renex 36): 10%
degree of damage to the plants, TRZAW 21d ([2]; 60 g of ai/ha, 0.5% Renex 36): 15%
degree of damage to the plants, HORVW 5d ([1]; 60 g of ai/ha, 0.5% Renex 36): 40%
degree of damage to the plants, HORVW 21d ([1]; 30 g of ai/ha, 0.5% Renex 36): 15%
degree of damage to the plants, HORVW 21d ([1]; 60 g of ai/ha, 0.5% Renex 36): 20%

CCS(=O)(=O)N(C(=O)CC(C)c1ccccc1)c1cc(-n2ncc(=O)n(C)c2=O)c(F)cc1C#N (stereo not shown) [Ex. I-40]
degree of damage to the plants, TRZAW 5d ([2]; 60 g of ai/ha, 0.5% Renex 36): 20%
degree of damage to the plants, HORVW 5d ([1]; 60 g of ai/ha, 0.5% Renex 36): 30%
degree of damage to the plants, HORVW 21d ([1]; 60 g of ai/ha, 0.5% Renex 36): 20%

CCS(=O)(=O)N(C(=O)CCc1cccc(OC)c1)c1cc(-n2ncc(=O)n(C)c2=O)c(F)cc1C#N [Ex. I-41]
degree of damage to the plants, HORVW 5d ([1]; 15 g of ai/ha, 0.5% Renex 36): 20%
degree of damage to the plants, HORVW 5d ([1]; 30 g of ai/ha, 0.5% Renex 36): 25%

CCS(=O)(=O)N(C(=O)CCc1ccc(F)c(F)c1)c1cc(-n2ncc(=O)n(C)c2=O)c(F)cc1C#N [Ex. I-42]
degree of damage to the plants, HORVW 5d ([1]; 15 g of ai/ha, 0.5% Renex 36): 15%
degree of damage to the plants, HORVW 5d ([1]; 30 g of ai/ha, 0.5% Renex 36): 20%
degree of damage to the plants, HORVW 5d ([1]; 60 g of ai/ha, 0.5% Renex 36): 30%
degree of damage to the plants, HORVW 21d ([1]; 60 g of ai/ha, 0.5% Renex 36): 20%

CCS(=O)(=O)N(C(=O)CCc1ccc(F)cc1F)c1cc(-n2ncc(=O)n(C)c2=O)c(F)cc1C#N [Ex. I-43]
degree of damage to the plants, TRZAW 5d ([2]; 15 g of ai/ha, 0.5% Renex 36): 15%
degree of damage to the plants, TRZAW 5d ([2]; 30 g of ai/ha, 0.5% Renex 36): 15%
degree of damage to the plants, HORVW 21d ([1]; 15 g of ai/ha, without addition of Renex 36): 10%

CCCCCC(C)OC(=O)COc1ccc(Cl)c2cccnc12 (stereo not shown) [cloquintocet-mexyl, 1-methylhexyl 5-chloroquinolin-8-oxyacetate, reference compound]
degree of damage to the plants, TRZAW 5d ([2]; 50 g of ai/ha, 0.5% Renex 36): 0%
degree of damage to the plants, TRZAW 5d [2, 3]: 0%
degree of damage to the plants, TRZAW 21d ([2]; 50 g of ai/ha, 0.5% Renex 36): 0%
degree of damage to the plants, HORVW 5d ([1]; 50 g of ai/ha, 0.5% Renex 36): 0%
degree of damage to the plants, HORVW 5d [1, 3]: 0%
degree of damage to the plants, HORVW 21d ([1]; 50 g of ai/ha, 0.5% Renex 36): 0%
degree of damage to the plants, HORVW 21d [1, 3]: 0%

CCOC(=O)C1=NOC(c2ccccc2)(c2ccccc2)C1 [isoxadifen, ethyl 4,5-dihydro-5,5-diphenyl-3-isoxazolecarboxylate, reference compound]
degree of damage to the plants, TRZAW 5d ([2]; 50 g of ai/ha, 0.5% Renex 36): 0%
degree of damage to the plants, TRZAW 5d [2, 3]: 0%
degree of damage to the plants, TRZAW 21d ([2]; 50 g of ai/ha, 0.5% Renex 36): 0%
degree of damage to the plants, HORVW 5d ([1]; 50 g of ai/ha, 0.5% Renex 36): 0%
degree of damage to the plants, HORVW 5d [1, 3]: 0%
degree of damage to the plants, HORVW 21d ([1]; 50 g of ai/ha, 0.5% Renex 36): 0%
degree of damage to the plants, HORVW 21d [1, 3]: 0%

CCOC(=O)C1=NN(c2ccc(Cl)cc2Cl)C(C)(C(=O)OCC)C1 (stereo not shown) [mefenpyr-diethyl, diethyl 1-(2,4-dichlorophenyl)-4,5-dihydro-5-methyl-1H-pyrazole-3,5-dicarboxylate, reference compound]
degree of damage to the plants, TRZAW 5d ([2]; 50 g of ai/ha, 0.5% Renex 36): 0%
degree of damage to the plants, TRZAW 21d ([2]; 50 g of ai/ha, 0.5% Renex 36): 0%
degree of damage to the plants, HORVW 5d ([1]; 50 g of ai/ha, 0.5% Renex 36): 0%
degree of damage to the plants, HORVW 21d ([1]; 50 g of ai/ha, 0.5% Renex 36): 0%
